Data set [1] can be described thus: Surface tension of aqueous solutions of the fluorinated derivatives. The settings on record: solution in water, 20°C. The format is physicochemical. As to the method:
(§1) Pour illustrer le caractère fortement tensioactif des dérivés fluorés de l'invention, on a effectué des mesures à 20°C de la tension superficielle de solutions dans l'eau de ces dérivés, ainsi que de la tension interfaciale entre ces solutions et un composé perfluoré constitué par la perfluorodécaline.
(§2) On précise que dans les conditions de ces mesures: • - la tension superficielle de l'eau à 20°C est de 73,0± 0,2mN.m-^1, et • - la tension interfaciale entre l'eau et la perfluorodécaline à 20°C est de 56,0 ± 0,2 mN.m-^1.

Data set [2] is described as follows: Interfacial tension between aqueous solutions and perfluorodecalin. Type of data set: physicochemical. To be noted: solution in water vs perfluorodécaline, 20°C. The procedure:
as §1, §2

Data set [3] deals with cultures cellulaires lymphoblastoïdes de la souche Namalva. Briefly: Biocompatibility on lymphoblastoid cell cultures (growth, multiplication, subculturing). Type of data set: cell-based. The text has this:
Pour tester la biocompatibilité des dérivés de l'invention, on a vérifié que ces dérivés n'avaient pas d'effet sur la croissance, la multiplication et le repiquage de cultures cellulaires lymphoblastoïdes de la souche Namalva.

A further data set concerns globules rouges humains. Nature of the data set: Haemolysis test on human red blood cells. The format is cell-based.
A further data set deals with souris. Briefly: Acute toxicity after intravenous administration to mice. The format is in vivo. The procedure:
Enfin, on a vérifié que les dérivés de l'invention ne présentaient pas de toxicité aigüe. Ainsi, l'administration intraveineuse à des souris, de 20 ml/kg des solutions à : • - 100 mg/I de (F-butyl-2')éthylbétaïne (ex. 4), • - 100 mg/l de (F-hexyl-2')éthylbétaïne (ex. 5), • - 100 mg/I de (F-octyl-2')éthylbétaïne (ex. 6), et • - 500 mg/I de (F-octyl-3"propylcarbamoyl)-4'butylbétaïne (ex. 14), dans de l'eau à 9 pour mille de NaCl, a été bien tolérée.

Where [4] appears, read: solution 1 g/l in water with 9 per mille NaCl.
The mark [5] stands for this setting: solution 5 g/l in water with 9 per mille NaCl.
The mark [6] stands for this setting: 20 ml/kg of a 100 mg/l solution in water with 9 per mille NaCl.
Setting [7] is: solution 500 mg/l in water with 9 per mille NaCl.

On to `C[N+](C)(C)C(CCC(F)(F)C(F)(F)C(F)(F)C(F)(F)C(F)(F)C(F)(F)F)C(=O)[O-]` (centres unmarked) [(F-hexyl-2')éthyl bétaïne de l'Ex. 5, (F-hexyl-2')éthyl bétaïne], for which the Tension superficielle in data set [1] (concentration 0,1 g/l) was 39,3 mN.m^-1; in data set [1] (concentration 1 g/l), 20,0 mN.m^-1. For the same compound, the “Tension interfaciale/ F-décaline” value in data set [2] (concentration 0,1 g/l) is given as 22,4 mN.m^-1; in data set [2] (concentration 1 g/l), 3,1 mN.m^-1. The “croissance, multiplication et repiquage des cultures” value in data set [3] (setting [4]) was “ne perturbent pas la croissance, la multiplication et le repiquage de ces cultures”. Also, the “hémolyse des globules rouges humains” value with globules rouges humains (setting [5]) is reported as “ne provoquent pas l'hémolyse”. Also, the “toxicité aigüe (tolérance)” value with souris (setting [6]) is reported as “bien tolérée”.
On to `C[N+](C)(C)C(CCC(F)(F)C(F)(F)C(F)(F)C(F)(F)C(F)(F)C(F)(F)C(F)(F)C(F)(F)F)C(=O)[O-]` (centres unmarked) [(F-octyl-2')éthyl bétaïne de l'Ex. 6, (F-octyl-2')éthyl bétaïne], for which the values for the Tension superficielle in data set [1] (concentration 0,01 g/l), in data set [1] (concentration 0,1 g/l) and in data set [1] (concentration 1 g/l) were 25,6 mN.m^-1, 19,9 mN.m^-1 and 19,1 mN.m^-1, respectively. For the same compound, the results for the “Tension interfaciale/ F-décaline” value in data set [2] (concentration 0,01 g/l), in data set [2] (concentration 0,1 g/l) and in data set [2] (concentration 1 g/l) were 7,5 mN.m^-1, 3,4 mN.m^-1 and 2,8 mN.m^-1, respectively. For the same compound, the “croissance, multiplication et repiquage des cultures” value in data set [3] (setting [4]) is recorded as “ne perturbent pas la croissance, la multiplication et le repiquage de ces cultures”. Also, in the data set on globules rouges humains (setting [4]), the “hémolyse des globules rouges humains” value is listed as “ne provoquent pas l'hémolyse”. Also, the “toxicité aigüe (tolérance)” value in the data set with souris (setting [6]) is reported as “bien tolérée”.
With `C[N+](C)(C)C(CCC(F)(F)C(F)(F)C(F)(F)C(F)(F)F)C(=O)[O-]` (centres unmarked) [(F-butyl-2')éthyl bétaïne de l'Ex. 4, F-(butyl-2')éthyl bétaïne], the Tension superficielle in data set [1] (concentration 0,1 g/l) is reported as 68,4 mN.m^-1; in data set [1] (concentration 1 g/l) it was 49,3 mN.m^-1. Also, the “Tension interfaciale/ F-décaline” value in data set [2] (concentration 0,1 g/l) is listed as 48,0 mN.m^-1; in data set [2] (concentration 1 g/l), 34,5 mN.m^-1. Moreover, the “croissance, multiplication et repiquage des cultures” value in data set [3] (setting [4]) is “ne perturbent pas la croissance, la multiplication et le repiquage de ces cultures”. Further, the “hémolyse des globules rouges humains” value in the data set with globules rouges humains (setting [5]) is listed as “ne provoquent pas l'hémolyse”. Further, the “toxicité aigüe (tolérance)” value in the data set on souris (setting [6]) was “bien tolérée”.
For the compound `C[C@H](CCC(=O)NC(CCC(F)(F)C(F)(F)C(F)(F)C(F)(F)C(F)(F)C(F)(F)F)C(=O)O)[C@H]1CC[C@H]2[C@@H]3[C@H](O)C[C@@H]4C[C@H](O)CC[C@]4(C)[C@H]3C[C@H](O)[C@]12C` (some centres unmarked), in data set [1] (concentration 1 g/l), the Tension superficielle is listed as 28,5 mN.m^-1. In data set [2] (concentration 1 g/l), the “Tension interfaciale/ F-décaline” value is on record as 4,7 mN.m^-1.
`O=C(O)CNC(=O)CCC(F)(F)C(F)(F)C(F)(F)C(F)(F)C(F)(F)C(F)(F)C(F)(F)C(F)(F)F` [(F-octyl-3' propylcarbamoyl) éthanoate de sodium]: the Tension superficielle in data set [1] (concentration 0,01 g/l) is recorded as 43,2 mN.m^-1; in data set [1] (concentration 0,1 g/l), 38,8 mN.m^-1; in data set [1] (concentration 1 g/l) it was 21,6 mN.m^-1. For the same compound, the “Tension interfaciale/ F-décaline” value in data set [2] (concentration 0,01 g/l) was 41,3 mN.m^-1; in data set [2] (concentration 0,1 g/l), 25,2 mN.m^-1; in data set [2] (concentration 1 g/l), 7,1 mN.m^-1.
Consider `C[N+](C)(C)C(CCCCNC(=O)CCC(F)(F)C(F)(F)C(F)(F)C(F)(F)C(F)(F)C(F)(F)C(F)(F)C(F)(F)F)C(=O)[O-]` (centres unmarked) [(triméthylammonio)-2 [(F-octyl)-3' propanoylamino] -6 hexanoate], for which the Tension superficielle was 22,8 mN.m^-1 in data set [1] (concentration 0,01 g/l) and 19,7 mN.m^-1 in data set [1] (concentration 0,1 g/l). For the same compound, the results for the “Tension interfaciale/ F-décaline” value in data set [2] (concentration 0,01 g/l) and in data set [2] (concentration 0,1 g/l) were 5,2 mN.m^-1 and 3,6 mN.m^-1, respectively. Besides, the “croissance, multiplication et repiquage des cultures” value in data set [3] (setting [7]) is “ne perturbent pas la croissance, la multiplication et le repiquage de ces cultures”. Moreover, the “hémolyse des globules rouges humains” value in the data set on globules rouges humains (setting [7]) was “ne provoquent pas l'hémolyse”. For the same compound, the “toxicité aigüe (tolérance)” value in the data set with souris (20 ml/kg of a 500 mg/l solution in water with 9 per mille NaCl) is on record as “bien tolérée”.
